Measurements reported in ChEMBL document CHEMBL2086238, “Identification of ETP-46321, a potent and orally bioavailable PI3K α, δ inhibitor” (Bioorg Med Chem Lett, 2012).
pIC50, pKi: −log10 of the molar value.

What was measured:
[1] = target: T1, Serine/threonine-protein kinase 4 (Homo sapiens) (UniProt Q13043); experiment: Inhibition of MST1 at 5 uM
T1 sequence (whole entry): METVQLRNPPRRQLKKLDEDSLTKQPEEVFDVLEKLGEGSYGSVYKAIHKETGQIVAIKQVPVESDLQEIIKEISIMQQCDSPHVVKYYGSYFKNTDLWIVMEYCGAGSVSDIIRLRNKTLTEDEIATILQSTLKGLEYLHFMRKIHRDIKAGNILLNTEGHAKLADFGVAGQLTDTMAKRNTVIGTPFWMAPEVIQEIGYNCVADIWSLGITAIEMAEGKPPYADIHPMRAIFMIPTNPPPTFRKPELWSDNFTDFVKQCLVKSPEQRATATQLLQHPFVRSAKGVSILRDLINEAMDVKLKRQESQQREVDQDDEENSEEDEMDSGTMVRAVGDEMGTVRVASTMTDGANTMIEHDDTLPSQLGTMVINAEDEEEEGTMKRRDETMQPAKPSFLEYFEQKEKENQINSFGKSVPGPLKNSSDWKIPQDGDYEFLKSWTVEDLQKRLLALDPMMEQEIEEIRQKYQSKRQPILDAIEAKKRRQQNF

[2] = target: Hepatocyte growth factor receptor (Homo sapiens) (UniProt P08581); experiment: Inhibition of MET at 1 uM
[3] = target: T2, NUAK family SNF1-like kinase 1 (Homo sapiens) (UniProt O60285); experiment: Inhibition of ARK5 at 1 uM
T2 sequence (whole entry): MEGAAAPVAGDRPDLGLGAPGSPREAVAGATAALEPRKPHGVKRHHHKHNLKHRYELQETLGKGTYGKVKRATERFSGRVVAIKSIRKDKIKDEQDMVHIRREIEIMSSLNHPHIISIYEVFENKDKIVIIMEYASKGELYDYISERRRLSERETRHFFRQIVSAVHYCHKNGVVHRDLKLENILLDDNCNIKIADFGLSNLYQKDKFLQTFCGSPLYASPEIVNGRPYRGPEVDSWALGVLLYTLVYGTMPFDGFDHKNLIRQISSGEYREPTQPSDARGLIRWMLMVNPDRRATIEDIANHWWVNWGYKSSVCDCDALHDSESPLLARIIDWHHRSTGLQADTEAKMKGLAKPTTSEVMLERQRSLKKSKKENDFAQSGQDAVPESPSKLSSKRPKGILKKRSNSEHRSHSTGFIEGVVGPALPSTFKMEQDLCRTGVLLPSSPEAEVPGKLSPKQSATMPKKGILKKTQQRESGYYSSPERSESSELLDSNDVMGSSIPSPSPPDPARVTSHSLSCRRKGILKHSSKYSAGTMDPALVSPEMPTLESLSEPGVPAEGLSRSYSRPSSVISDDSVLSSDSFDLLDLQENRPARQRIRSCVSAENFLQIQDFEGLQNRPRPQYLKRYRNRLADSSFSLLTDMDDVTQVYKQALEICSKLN

[4] = target: Mitogen-activated protein kinase 8 (Homo sapiens) (UniProt P45983); experiment: Inhibition of JNK1 at 5 uM
[5] = system: Serine/threonine-protein kinase B-raf (Homo sapiens), P15056 [V600E]; experiment: Inhibition of BRAF V600E mutant at 1 uM
[6] = target: T3, Serine/threonine-protein kinase Sgk1 (Homo sapiens) (UniProt O00141); experiment: Inhibition of SGK1 at 1 uM
T3 sequence (whole entry): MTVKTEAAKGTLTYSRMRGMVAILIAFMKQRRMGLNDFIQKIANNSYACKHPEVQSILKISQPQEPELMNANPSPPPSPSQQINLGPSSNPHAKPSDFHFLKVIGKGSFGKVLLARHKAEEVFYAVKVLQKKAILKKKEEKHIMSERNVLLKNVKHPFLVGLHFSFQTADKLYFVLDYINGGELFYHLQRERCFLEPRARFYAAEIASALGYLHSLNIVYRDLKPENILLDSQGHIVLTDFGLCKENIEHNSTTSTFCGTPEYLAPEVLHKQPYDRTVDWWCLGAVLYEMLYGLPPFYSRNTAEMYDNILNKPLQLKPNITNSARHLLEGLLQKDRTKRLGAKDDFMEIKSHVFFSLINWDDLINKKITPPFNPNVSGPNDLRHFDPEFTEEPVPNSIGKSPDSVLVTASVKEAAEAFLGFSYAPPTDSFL

[7] = target: Mast/stem cell growth factor receptor Kit (Homo sapiens) (UniProt P10721); experiment: Inhibition of KIT at 1 uM
[8] = Inhibition of PDGFR at 1 uM
[9] = target: Tyrosine-protein kinase JAK2 (Homo sapiens) (UniProt O60674); experiment: Inhibition of JAK2 at 1 uM
[10] = target: Serine/threonine-protein kinase PAK 1 (Homo sapiens) (UniProt Q13153); experiment: Inhibition of PAK1 at 5 uM
[11] = target: Epidermal growth factor receptor (Homo sapiens) (UniProt P00533); experiment: Inhibition of EGFR at 1 uM
[12] = target: Receptor-type tyrosine-protein kinase FLT3 (Homo sapiens) (UniProt P36888); experiment: Inhibition of FLT3 at 5 uM
[13] = target: Fibroblast growth factor receptor 1 (Homo sapiens) (UniProt P11362); experiment: Inhibition of FGFR1 at 5 uM
[14] = target: Serine/threonine-protein kinase pim-1 (Homo sapiens) (UniProt P11309); experiment: Inhibition of PIM1 at 5 uM
[15] = target: Mitogen-activated protein kinase 8 (Homo sapiens) (UniProt P45983); experiment: Inhibition of JNK1 at 1 uM
[16] = target: Ribosomal protein S6 kinase alpha-1 (Homo sapiens) (UniProt Q15418); experiment: Inhibition of RPS6KA1 at 1 uM
[17] = target: RAC-alpha serine/threonine-protein kinase (Homo sapiens) (UniProt P31749); experiment: Inhibition of AKT1 at 1 uM
[18] = system: Serine/threonine-protein kinase B-raf (Homo sapiens), P15056 [V600E]; experiment: Inhibition of BRAF V600E mutant at 5 uM
[19] = target: Serine/threonine-protein kinase pim-2 (Homo sapiens) (UniProt Q9P1W9); experiment: Inhibition of PIM2 at 5 uM
[20] = target: T1, Serine/threonine-protein kinase 4 (Homo sapiens); experiment: Inhibition of MST1 at 1 uM
[21] = target: Casein kinase I isoform alpha (Homo sapiens) (UniProt P48729); experiment: Inhibition of CK1alpha1 at 1 uM
[22] = target: CYP2C19 (Homo sapiens, UniProt P33261); experiment: Inhibition of CYP2C19 at 10 uM; type: ADME
[23] = target: CYP3A4 (Homo sapiens, UniProt P08684); experiment: Inhibition of CYP3A4 at 10 uM; type: ADME
[24] = target: CYP2C9 (Homo sapiens, UniProt P11712); experiment: Inhibition of CYP2C9 at 10 uM; type: ADME
[25] = target: CYP2D6 (Homo sapiens, UniProt P10635); experiment: Inhibition of CYP2D6 at 10 uM; type: ADME
[26] = Stability in human liver microsomes at 1 uM incubated for 15 mins; type: ADME, Microsome; conditions: read-out: Stability
[27] = target: PI3-kinase p110-alpha/p85-alpha (Homo sapiens, UniProt P42336); experiment: Inhibition of human PI3Kalpha (p110alpha/p85alpha) by ADP accumulation based HTRF assay; type: protein-complex assay; conditions: for pKi: read-out: Ki(app)
[28] = Stability in mouse liver microsomes at 1 uM incubated for 15 mins; type: ADME, Microsome; conditions: read-out: Stability

Chain of CYP2D6 (P10635 whole entry): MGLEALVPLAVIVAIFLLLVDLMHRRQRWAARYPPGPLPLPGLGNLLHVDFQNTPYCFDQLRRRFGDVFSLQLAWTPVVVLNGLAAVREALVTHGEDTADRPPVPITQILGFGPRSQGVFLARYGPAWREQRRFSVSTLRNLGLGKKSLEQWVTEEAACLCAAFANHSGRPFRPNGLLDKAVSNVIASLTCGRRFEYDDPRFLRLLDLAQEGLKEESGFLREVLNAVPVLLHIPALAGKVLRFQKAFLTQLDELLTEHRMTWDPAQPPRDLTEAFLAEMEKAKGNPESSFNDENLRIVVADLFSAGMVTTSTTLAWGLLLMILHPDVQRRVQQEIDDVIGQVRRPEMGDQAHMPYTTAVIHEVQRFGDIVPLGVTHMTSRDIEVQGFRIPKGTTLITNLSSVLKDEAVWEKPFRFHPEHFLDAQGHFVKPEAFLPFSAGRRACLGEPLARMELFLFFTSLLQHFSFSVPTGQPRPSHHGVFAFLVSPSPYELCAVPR
Chain of Epidermal growth factor receptor (Homo sapiens) (P00533 whole entry): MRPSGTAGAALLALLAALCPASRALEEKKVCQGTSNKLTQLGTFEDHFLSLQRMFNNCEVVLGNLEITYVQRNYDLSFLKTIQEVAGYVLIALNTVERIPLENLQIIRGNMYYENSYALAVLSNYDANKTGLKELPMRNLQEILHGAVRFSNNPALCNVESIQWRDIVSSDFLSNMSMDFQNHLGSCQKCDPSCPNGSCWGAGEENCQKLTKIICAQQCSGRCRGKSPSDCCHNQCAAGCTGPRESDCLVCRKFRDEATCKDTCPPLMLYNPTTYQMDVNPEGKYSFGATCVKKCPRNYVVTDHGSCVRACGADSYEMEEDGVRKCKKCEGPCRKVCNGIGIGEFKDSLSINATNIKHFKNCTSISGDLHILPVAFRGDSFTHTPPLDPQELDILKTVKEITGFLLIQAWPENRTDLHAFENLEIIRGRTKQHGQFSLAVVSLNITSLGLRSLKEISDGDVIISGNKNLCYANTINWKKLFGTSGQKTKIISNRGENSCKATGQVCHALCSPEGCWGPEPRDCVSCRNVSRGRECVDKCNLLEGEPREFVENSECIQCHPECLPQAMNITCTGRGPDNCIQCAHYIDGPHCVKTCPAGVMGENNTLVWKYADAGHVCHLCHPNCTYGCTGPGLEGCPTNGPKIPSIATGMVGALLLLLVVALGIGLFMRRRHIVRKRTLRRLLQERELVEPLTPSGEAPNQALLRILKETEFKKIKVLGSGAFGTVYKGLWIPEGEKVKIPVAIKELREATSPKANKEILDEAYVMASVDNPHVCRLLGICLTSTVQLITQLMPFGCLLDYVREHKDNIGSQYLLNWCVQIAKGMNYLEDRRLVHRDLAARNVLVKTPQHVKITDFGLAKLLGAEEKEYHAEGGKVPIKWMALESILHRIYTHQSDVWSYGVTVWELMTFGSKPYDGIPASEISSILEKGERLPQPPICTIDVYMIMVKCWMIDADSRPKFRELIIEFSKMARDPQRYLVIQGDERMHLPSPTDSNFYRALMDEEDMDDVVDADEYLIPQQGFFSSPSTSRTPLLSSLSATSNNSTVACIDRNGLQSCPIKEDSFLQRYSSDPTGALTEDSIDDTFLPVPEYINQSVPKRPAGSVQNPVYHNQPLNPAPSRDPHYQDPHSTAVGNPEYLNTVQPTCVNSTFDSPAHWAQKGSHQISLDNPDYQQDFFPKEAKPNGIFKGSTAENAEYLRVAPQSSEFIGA
Chain of PI3-kinase p110-alpha/p85-alpha (P27986 whole entry): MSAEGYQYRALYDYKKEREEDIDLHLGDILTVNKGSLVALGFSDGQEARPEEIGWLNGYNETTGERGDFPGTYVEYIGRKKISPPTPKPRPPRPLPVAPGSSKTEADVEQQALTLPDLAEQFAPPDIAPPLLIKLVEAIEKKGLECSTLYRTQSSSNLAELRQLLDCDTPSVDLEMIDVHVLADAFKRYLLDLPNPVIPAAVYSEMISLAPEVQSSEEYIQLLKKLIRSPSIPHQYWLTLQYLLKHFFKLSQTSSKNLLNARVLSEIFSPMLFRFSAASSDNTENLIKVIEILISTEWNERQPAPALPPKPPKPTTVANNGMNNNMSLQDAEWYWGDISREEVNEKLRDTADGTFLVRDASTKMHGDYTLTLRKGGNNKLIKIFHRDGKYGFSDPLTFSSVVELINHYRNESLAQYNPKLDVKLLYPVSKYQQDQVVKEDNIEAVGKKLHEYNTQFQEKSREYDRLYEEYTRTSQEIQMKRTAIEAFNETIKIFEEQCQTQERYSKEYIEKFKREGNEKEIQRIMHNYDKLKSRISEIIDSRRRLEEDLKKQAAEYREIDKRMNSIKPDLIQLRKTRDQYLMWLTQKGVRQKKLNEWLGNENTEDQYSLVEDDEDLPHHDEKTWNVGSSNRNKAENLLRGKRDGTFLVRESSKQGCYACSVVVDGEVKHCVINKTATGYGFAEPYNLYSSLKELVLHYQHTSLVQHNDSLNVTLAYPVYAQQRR
Chain of PI3-kinase p110-alpha/p85-alpha (P42336 whole entry): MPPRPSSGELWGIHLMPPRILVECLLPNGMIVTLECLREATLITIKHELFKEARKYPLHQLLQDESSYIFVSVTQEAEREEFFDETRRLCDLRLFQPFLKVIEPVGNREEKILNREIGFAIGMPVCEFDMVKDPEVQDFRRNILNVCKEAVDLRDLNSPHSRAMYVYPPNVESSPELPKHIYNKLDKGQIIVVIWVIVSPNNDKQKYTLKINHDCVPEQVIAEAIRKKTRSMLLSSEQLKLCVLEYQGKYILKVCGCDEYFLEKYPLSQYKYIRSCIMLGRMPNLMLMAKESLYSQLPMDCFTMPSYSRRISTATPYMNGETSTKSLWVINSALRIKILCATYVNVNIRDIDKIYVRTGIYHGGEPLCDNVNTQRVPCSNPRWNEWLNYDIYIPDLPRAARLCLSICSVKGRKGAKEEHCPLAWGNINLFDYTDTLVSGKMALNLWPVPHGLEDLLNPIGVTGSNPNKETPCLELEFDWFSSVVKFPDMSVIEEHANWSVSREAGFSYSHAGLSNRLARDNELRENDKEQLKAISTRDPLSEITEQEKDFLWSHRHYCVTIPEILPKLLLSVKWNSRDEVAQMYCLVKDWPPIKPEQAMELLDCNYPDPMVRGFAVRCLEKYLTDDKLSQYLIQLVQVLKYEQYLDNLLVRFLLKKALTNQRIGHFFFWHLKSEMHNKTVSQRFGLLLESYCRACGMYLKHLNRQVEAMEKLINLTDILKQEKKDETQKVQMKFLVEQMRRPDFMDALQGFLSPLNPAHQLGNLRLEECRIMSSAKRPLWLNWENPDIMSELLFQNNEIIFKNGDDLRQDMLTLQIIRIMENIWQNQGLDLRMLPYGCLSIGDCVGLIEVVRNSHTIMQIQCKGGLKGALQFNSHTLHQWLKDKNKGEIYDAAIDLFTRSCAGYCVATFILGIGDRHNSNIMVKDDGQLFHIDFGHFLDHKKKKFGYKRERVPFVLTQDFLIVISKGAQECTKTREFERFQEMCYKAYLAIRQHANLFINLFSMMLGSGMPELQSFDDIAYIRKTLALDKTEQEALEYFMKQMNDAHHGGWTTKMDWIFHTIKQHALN
Chain of RAC-alpha serine/threonine-protein kinase (Homo sapiens) (P31749 whole entry): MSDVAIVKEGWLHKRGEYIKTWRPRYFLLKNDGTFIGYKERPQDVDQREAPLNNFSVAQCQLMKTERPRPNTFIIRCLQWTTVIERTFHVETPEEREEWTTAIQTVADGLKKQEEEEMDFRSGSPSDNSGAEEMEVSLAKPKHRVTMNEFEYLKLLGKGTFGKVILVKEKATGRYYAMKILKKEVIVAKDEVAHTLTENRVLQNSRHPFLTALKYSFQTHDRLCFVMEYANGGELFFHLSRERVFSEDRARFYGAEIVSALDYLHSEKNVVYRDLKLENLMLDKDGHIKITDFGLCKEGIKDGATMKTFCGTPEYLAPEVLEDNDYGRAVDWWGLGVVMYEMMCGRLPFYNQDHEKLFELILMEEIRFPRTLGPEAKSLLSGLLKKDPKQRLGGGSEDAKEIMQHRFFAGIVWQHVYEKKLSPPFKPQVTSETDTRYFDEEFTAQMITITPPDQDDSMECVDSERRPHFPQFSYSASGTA
Chain of Serine/threonine-protein kinase B-raf (Homo sapiens), P15056 [V600E] (P15056 whole entry V600E): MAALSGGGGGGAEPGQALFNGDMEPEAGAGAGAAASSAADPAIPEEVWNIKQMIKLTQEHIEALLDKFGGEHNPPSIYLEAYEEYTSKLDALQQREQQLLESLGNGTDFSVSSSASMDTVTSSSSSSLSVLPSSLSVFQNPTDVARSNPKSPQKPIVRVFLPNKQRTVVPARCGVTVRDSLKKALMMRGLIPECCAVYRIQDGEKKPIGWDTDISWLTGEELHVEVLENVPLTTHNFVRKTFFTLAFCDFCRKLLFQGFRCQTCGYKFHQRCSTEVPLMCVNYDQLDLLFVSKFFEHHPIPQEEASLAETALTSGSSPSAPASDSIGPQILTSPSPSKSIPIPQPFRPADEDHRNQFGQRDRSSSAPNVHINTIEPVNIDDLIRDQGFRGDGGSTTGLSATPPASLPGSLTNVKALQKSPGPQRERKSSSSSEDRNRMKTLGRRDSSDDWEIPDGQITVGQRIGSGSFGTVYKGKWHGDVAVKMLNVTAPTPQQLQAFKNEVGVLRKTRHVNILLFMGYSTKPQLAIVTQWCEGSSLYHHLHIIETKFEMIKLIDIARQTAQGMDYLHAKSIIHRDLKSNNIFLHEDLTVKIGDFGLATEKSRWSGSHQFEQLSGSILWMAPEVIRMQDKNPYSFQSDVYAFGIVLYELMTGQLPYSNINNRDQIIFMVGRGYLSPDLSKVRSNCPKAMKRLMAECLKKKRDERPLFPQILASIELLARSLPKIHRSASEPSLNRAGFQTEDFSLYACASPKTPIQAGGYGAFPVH
Chain of Serine/threonine-protein kinase pim-1 (Homo sapiens) (P11309 whole entry, looked up): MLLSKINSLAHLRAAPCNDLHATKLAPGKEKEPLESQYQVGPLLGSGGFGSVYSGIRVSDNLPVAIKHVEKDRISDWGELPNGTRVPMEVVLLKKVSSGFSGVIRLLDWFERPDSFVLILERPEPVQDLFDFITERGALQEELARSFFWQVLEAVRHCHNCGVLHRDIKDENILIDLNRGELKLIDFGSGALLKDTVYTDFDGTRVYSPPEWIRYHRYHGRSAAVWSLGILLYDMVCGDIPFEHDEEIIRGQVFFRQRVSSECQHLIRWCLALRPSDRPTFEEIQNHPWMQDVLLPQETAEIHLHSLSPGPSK

| SMILES | inhibition [1] [%] | inhibition [2] [%] | inhibition [3] [%] | inhibition [4] [%] | inhibition [5] [%] | inhibition [6] [%] | inhibition [7] [%] | inhibition [8] [%] | inhibition [9] [%] | inhibition [10] [%] | inhibition [11] [%] | inhibition [12] [%] | inhibition [13] [%] | inhibition [14] [%] | inhibition [15] [%] | inhibition [16] [%] | inhibition [17] [%] | inhibition [18] [%] | inhibition [19] [%] | inhibition [20] [%] | other results |
| --- | --- | --- | --- | --- | --- | --- | --- | --- | --- | --- | --- | --- | --- | --- | --- | --- | --- | --- | --- | --- | --- |
| Cc1nc(N)ncc1-c1cn2cc(CN3CCN(S(C)(=O)=O)CC3)nc2c(N2CCOCC2)n1 | < 30 | < 30 | < 30 | < 30 | < 30 | < 30 | < 30 | < 30 | < 30 | < 30 | < 30 | < 30 | < 30 | < 30 | < 30 | < 30 | < 30 | < 30 | < 30 | < 30 | inhibition [21]: < 30% |
| CS(=O)(=O)N1CCN(Cc2nc3c(N4CCOCC4)nc(-c4cnc(N)nc4)cn3c2Br)CC1 | < 30 | < 30 | < 30 | < 30 | < 30 | < 30 | < 30 | < 30 | < 30 | < 30 | < 30 | < 30 | < 30 | < 30 | < 30 | < 30 | < 30 | < 30 | < 30 | < 30 | inhibition at 10 µM [22]: < 30%; inhibition at 10 µM [23]: < 30%; inhibition at 10 µM [24]: < 30%; inhibition at 10 µM [25]: < 30%; remaining at 0.25 h, 1 µM [26]: 70%; pIC50 [27]: 9.15; inhibition [21]: < 30%; remaining at 0.25 h, 1 µM [28]: 43% |
| CS(=O)(=O)N1CCN(Cc2cn3c(Cl)c(-c4cnc(N)nc4)nc(N4CCOCC4)c3n2)CC1 | < 30 | < 30 | < 30 | < 30 | < 30 | < 30 | < 30 | < 30 | < 30 | < 30 | < 30 | < 30 | < 30 | < 30 | < 30 | < 30 | < 30 | < 30 | < 30 | < 30 | inhibition at 10 µM [22]: < 30%; inhibition at 10 µM [23]: < 30%; inhibition at 10 µM [24]: < 30%; inhibition at 10 µM [25]: < 30%; remaining at 0.25 h, 1 µM [26]: 86%; pKi [27]: 8.62; inhibition [21]: < 30%; remaining at 0.25 h, 1 µM [28]: 91% |
| CS(=O)(=O)N1CCN(Cc2cn3cc(-c4cnc(N)nc4)nc(N4CCOCC4)c3n2)CC1 | < 30 | < 30 | < 30 | < 30 | < 30 | < 30 | < 30 | < 30 | < 30 | < 30 | < 30 | < 30 | < 30 | < 30 | < 30 | < 30 | < 30 | < 30 | < 30 | < 30 | inhibition at 10 µM [22]: < 30%; inhibition at 10 µM [23]: < 30%; inhibition at 10 µM [24]: < 30%; inhibition at 10 µM [25]: < 30%; remaining at 0.25 h, 1 µM [26]: 93%; inhibition [21]: < 30%; remaining at 0.25 h, 1 µM [28]: 88% |
| Cc1c(CN2CCN(S(C)(=O)=O)CC2)nc2c(N3CCOCC3)nc(-c3cnc(N)nc3)cn12 | < 30 | < 30 | < 30 | < 30 | < 30 | < 30 | < 30 | < 30 | < 30 | < 30 | < 30 | < 30 | < 30 | < 30 | < 30 | < 30 | < 30 | < 30 | < 30 | < 30 | inhibition at 10 µM [22]: < 30%; inhibition at 10 µM [23]: < 30%; inhibition at 10 µM [24]: < 30%; inhibition at 10 µM [25]: < 30%; remaining at 0.25 h, 1 µM [26]: 88%; pIC50 [27]: 8.00; pKi [27]: 8.00; inhibition [21]: < 30%; remaining at 0.25 h, 1 µM [28]: 80% |
